Measured values reported in patent US20120034193A1, “TREATMENT OF NEUROTROPHIC FACTOR MEDIATED DISORDERS” (priority 2009, published 2012).

Experiments:
[1] = tested on: rat primary cortical neurones; assay: Pre-treatment against glutamate-induced damage (LDH) in cortical neurones; format: cell-based; conditions: for Neuronal survival (% of control): 24 h before and 24 h after glutamate 100 μM 10 min; for Toxicity at the plateau of activity: nanomolar concentration, cortical neurones in vitro
Procedure: Exposure of rat primary cortical neurones to glutamate increases lactate dehydrogenase (LDH) activity measured 24 h after glutamate exposure, indicating significant neuronal damage. Rat cortical neurones were cultured by modification of a method previously described (Singer, et al., Neuroscience Letters, 1996, 212, pp. 13-16). On day 10 of culture, the medium was changed to a serum-free defined medium. On day 12, the cultures were washed and placed for 24 h in fresh medium containing test compound or vehicle (DMSO, 0.25%). On day 13 neurones were exposed to glutamate (100 μM; 10 min) at 37° C. The cultures were then washed with, and placed in, fresh medium supplemented with test compound or vehicle for a further 24 h before LDH was measured. Neuronal damage was assessed by measuring LDH activity in the media at 24 h after glutamate exposure.

[2] = tested on: Rat dopaminergic neurones; assay: Pre-treatment against MPP+-induced loss of dopaminergic neurones; format: cell-based; conditions: 30 nM, 24 h before and during MPP+ 2 μM 48 h
Procedure: Rat dopaminergic neurones were cultured as previously described (Schinelli et al., Journal of Neurochemistry, 1988, 50, pp. 1900-1907). On day 5, the cultures were washed and placed in fresh medium containing test compounds (30 nM), vehicle (DMSO, 0.25%) or a combination of BDNF (1.85 nM) and GDNF (0.17 nM) for 24 h.
Exposure of rat primary dopaminergic neurones to MPP^+ (2 μM, 24 h) causes a significant decrease in the number of dopaminergic neurones compared to the control. On day 6, MPP^+ (2 μM) was added to the cultures in the presence of test compounds, vehicle or a combination of BDNF and GDNF for a further 48 h. MPP^+ induces neuronal death, via inhibition of complex I in the mitochondria and consequent ATP depletion, resulting in the production of free radicals and induction of apoptosis. After the incubation period, the cultures were fixed with paraformaldehyde in PBS (4%). After fixation, the neurones were permeabilised with Triton ×100 (0.05%) for 30 min. The neurones were then incubated with anti-tyrosine hydroxylase (TH) at 37° C. for 2 h. The neurones were washed three times with PBS, and then incubated with goat anti mouse/Cy3 for 2 h at 37° C. The neurones were mounted and examined with the fluorescence microscopy.

[3] = tested on: Rat cortical neurones; assay: Neuritogenesis in cortical neurones; format: cell-based; conditions: 3 nM, 24 h; for Neurones displaying neurites (%): control 39.35 ± 2.06
Procedure: Rat cortical neurones were cultured by modification of a previously described method (Singer, et al., Neuroscience Letters, 1996, 212, pp. 13-16). Cells were cultured with sarsasapogenin, smilagenin, vehicle (DMSO 0.25%), GDNF, BDNF or NGF for 24 h. For each group, 15 pictures showing neurones displaying neurites were selected at random in each field, and for each neurone the longest neurite was measured. The neurite number was measured by counting the number of neurones displaying neurites, the number of neurones not displaying neurites and the number of total neurones in each field. Six fields per well were examined.
The results are shown in Table 15 below, expressed as the number of neurones with neurites per field as a percentage of the total number of neurones per field.

[4] = tested on: Rat sensory neurones; assay: Neuronal survival in sensory neurones; format: cell-based, Wistar rat; conditions: 0.2 nM, 2 days
Procedure: Rat sensory neurones were obtained from Wistar rat embryos on the 15th day of gestation. Cells were cultured at 37° C. in 5% CO2/95% air atmosphere. Following 2 days of culturing with sarsasapogenin, smilagenin, vehicle (DMSO, 0.25%) or NGF, sensory neurones were rinsed twice with PBS and fixed in paraformaldehyde (4%) in PBS for 30 min at 4° C. Cells were permeabilised with Triton X-100 (0.1%) and non-specific sites were saturated using foetal bovine serum. Prior to staining, cells were incubated for 2 h at room temperature with a mixture of primary antibodies: anti-neurofilament 68 and 200 in PBS containing foetal bovine serum 5%. Prior to washing, slides were demounted and the cells were washed twice with PBS for 5 min, placed in a dark room for 1 h and incubated with a secondary antibody: anti-mouse coupled with cyanine 3 (Cy3; 1/1600) and an anti-rabbit coupled with fluoroisothiocyanate (FITC; 1/200) in PBS containing foetal bovine serum (5%). Slides were washed twice with PBS for 5 min and mounted on coverslips using Mowiol, an antioxidative solution (9% w/v) in glycerol (22%) buffered with Tris/HCl ([…]; pH 8.5). Slides were left overnight at room temperature to harden and stored in light protected conditions. Slides were viewed using a DAPI/FITC/Cy3 triple filter microscope with a ×20 objective. A series of photographs per well were taken at random using a digital camera.

[5] = tested on: pmn mice; conditions: literature (Sagot et al. 1996); cited from earlier work

Molecule	Neuronal survival (% of control) ([1]; 1 nM)	Neuronal survival (% of control) ([1]; 3 nM)	Neuronal survival (% of control) ([1]; 10 nM)	Neuronal survival (% of control) ([1]; 30 nM)	Neuronal survival (% of control) ([1]; 100 nM)	Toxicity at the plateau of activity [1]	Neuronal survival (% of control) [2]	Neuronal survival (% of control) ([1]; 300 nM)	Neurite length (% of control) [3]	Neurones displaying neurites (%) [3] [%]	Neuronal survival (% of control) [4]	Motor neurone survival and disease course in pmn mice [5]
C[C@H]1CC[C@@]2(OC1)O[C@H]1C[C@H]3[C@@H]4CC[C@@H]5C[C@H](O)CC[C@]5(C)[C@H]4CC[C@]3(C)[C@H]1[C@@H]2C [episarsasapogenin]	84.79 ± 2.40 % of control	80.39 ± 5.18 % of control	83.80 ± 4.18 % of control	87.17 ± 2.51 % of control	86.42 ± 2.95 % of control	without causing any toxicity	95.01 ± 4.52 % of control	–	–	–	–	–
C[C@@H]1CC[C@@]2(OC1)O[C@H]1C[C@H]3[C@@H]4CC[C@@H]5C[C@H](O)CC[C@]5(C)[C@H]4CC[C@]3(C)[C@H]1[C@@H]2C [epismilagenin]	–	82.49 ± 3.93 % of control	78.57 ± 2.15 % of control	81.76 ± 2.09 % of control	78.39 ± 1.75 % of control	without causing any toxicity	115.12 ± 4.73 % of control	78.86 ± 1.80 % of control	–	–	–	–
NGF: nerve growth factor	–	–	–	–	–	–	–	–	145.73 ± 5.13 % of control	52.59 ± 2.43	151.50 ± 7.19 % of control	–
GDNF: glial-derived neurotrophic factor (protein, UniProt P39905 78-211, looked up) Glial cell line-derived …: SPDKQMAVLPRRERNRQAAAANPENSRGKGRRGQRGKNRGCVLTAIHLNVTDLGLGYETKEELIFRYCSGSCDAAETTYDKILKNLSRNRRLVSDKVGQACCRPIAFDDDLSFLDDNLVYHILRKHSAKRCGCI	–	–	–	–	–	–	–	–	125.30 ± 4.18 % of control	55.72 ± 1.98	–	improved the motor neurone survival but did not slow down the disease
